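Five concentrations, 48 hours, 96-well plates. At the GI50, growth is halved.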 Activity calls are given as the source filed them. Rule as the data show it: active = GI50 up to about 1.1 µM and inactive = higher.
Key:
Experiment in all cases: inhibition of tumour cell growth, NCI panel, 48 h
[1] = test system: UO-31
[2] = test system: SK-OV-3
[3] = test system: OVCAR-4
[4] = test system: SF-539
[5] = test system: SNB-75
[6] = test system: SK-MEL-2
[7] = test system: HCT-116
[8] = test system: U-251
[9] = test system: Hs-578T
[10] = test system: DU-145
[11] = test system: SK-MEL-5
[12] = test system: BT-549
[13] = test system: CCRF-CEM
[14] = test system: UACC-257
[15] = test system: OVCAR-8
[16] = test system: NCI/ADR-RES
[17] = test system: RPMI-8226
[18] = test system: SW-620
[19] = test system: MDA-MB-231
[20] = test system: A498
[21] = test system: IGROV-1
[22] = test system: SNB-19
[23] = test system: Malme-3M
[24] = test system: HOP-62
[25] = test system: NCI-H226
[26] = test system: HL-60
[27] = test system: KM12
[28] = test system: K562
[29] = test system: COLO 205
[30] = test system: HT-29
[31] = test system: SK-MEL-28
[32] = test system: A549
[33] = test system: EKVX
[34] = test system: HCT-15
[35] = test system: TK-10
[36] = test system: SF-268
[37] = test system: T47D
[38] = test system: NCI-H23
[39] = test system: SF-295
[40] = test system: OVCAR-3
[41] = test system: PC-3
[42] = test system: MOLT-4
[43] = test system: LOX IMVI
[44] = test system: 786-0
[45] = test system: M14
[46] = test system: SR
[47] = test system: RXF 393
[48] = test system: HOP-92
[49] = test system: NCI-H522
[50] = test system: MCF7
[51] = test system: MDA-N
[52] = test system: ACHN
[53] = test system: OVCAR-5
[54] = test system: CAKI-1
[55] = test system: NCI-H460
[56] = test system: UACC-62
[57] = test system: MDA-MB-435
[58] = test system: HCC 2998
[59] = test system: SN12C
[60] = test system: DMS-114
[61] = test system: SNB-78
[62] = test system: DMS-273
[63] = test system: M19-MEL
[64] = test system: DLD-1
[65] = test system: KM-20L2
[66] = test system: LXFL 529

O=C1C(c2ccccc2)=C(c2ccccc2)C1(Cl)Cl
GI50 [1]: 3.61 µM (inactive) | GI50 [2]: 15.8 µM (inactive) | GI50 [3]: 3.67 µM (inactive) | GI50 [4]: 3.05 µM (inactive) | GI50 [5]: 4.95 µM (inactive) | GI50 [6]: 2.72 µM (inactive) | GI50 [7]: 1.5 µM (inactive) | GI50 [8]: 2.84 µM (inactive) | GI50 [9]: 3.56 µM (inactive) | GI50 [10]: 11.7 µM (inactive) | GI50 [11]: 2.82 µM (inactive) | GI50 [12]: 2.47 µM (inactive) | GI50 [13]: 1.01 µM (active) | GI50 [14]: 2.71 µM (inactive) | GI50 [15]: 2.64 µM (inactive) | GI50 [16]: 3.2 µM (inactive) | GI50 [17]: 2.11 µM (inactive) | GI50 [18]: 2.75 µM (inactive) | GI50 [19]: 3.28 µM (inactive) | GI50 [20]: 5.21 µM (inactive) | GI50 [21]: 3.95 µM (inactive) | GI50 [22]: 16.7 µM (inactive) | GI50 [23]: 2.86 µM (inactive) | GI50 [24]: 14.8 µM (inactive) | GI50 [25]: 3.07 µM (inactive) | GI50 [26]: 0.736 µM (active) | GI50 [27]: 6.65 µM (inactive) | GI50 [28]: 1.91 µM (inactive) | GI50 [29]: 2.59 µM (inactive) | GI50 [30]: 3.15 µM (inactive) | GI50 [31]: 3.78 µM (inactive) | GI50 [32]: 11.4 µM (inactive) | GI50 [33]: 5.04 µM (inactive) | GI50 [34]: 2.07 µM | GI50 [35]: 0.667 µM (active) | GI50 [36]: 2.99 µM (inactive) | GI50 [37]: 3.18 µM (inactive) | GI50 [38]: 2.75 µM (inactive) | GI50 [39]: 9.89 µM (inactive) | GI50 [40]: 2.62 µM (inactive) | GI50 [41]: 4.37 µM (inactive) | GI50 [42]: 2.55 µM (inactive) | GI50 [43]: 1.93 µM (inactive) | GI50 [44]: 2.69 µM (inactive) | GI50 [45]: 2.22 µM (inactive) | GI50 [46]: 2.04 µM (inactive) | GI50 [47]: 1.88 µM (inactive) | GI50 [48]: 2.37 µM (inactive) | GI50 [49]: 2.12 µM (inactive) | GI50 [50]: 2.61 µM (inactive) | GI50 [51]: 2.02 µM (inactive) | GI50 [52]: 2.64 µM (inactive) | GI50 [53]: 7.82 µM (inactive) | GI50 [54]: 2.62 µM (inactive) | GI50 [55]: 5.9 µM (inactive) | GI50 [56]: 1.86 µM (inactive) | GI50 [57]: 2.43 µM (inactive) | GI50 [58]: 5.19 µM (inactive) | GI50 [59]: 2.87 µM (inactive)

Cc1nc2c(n1-c1ccccc1)C(=O)c1ccccc1C2=O
GI50 [1]: 73.3 µM (inactive) | GI50 [2]: > 100 µM (inactive) | GI50 [3]: 28.2 µM (inactive) | GI50 [4]: 41.7 µM (inactive) | GI50 [5]: > 100 µM (inactive) | GI50 [6]: > 100 µM (inactive) | GI50 [7]: 22.2 µM (inactive) | GI50 [8]: 34 µM (inactive) | GI50 [60]: 21.6 µM (inactive) | GI50 [11]: 25.8 µM (inactive) | GI50 [13]: 32.1 µM (inactive) | GI50 [61]: 27.5 µM (inactive) | GI50 [14]: 22.4 µM (inactive) | GI50 [15]: 42.4 µM (inactive) | GI50 [18]: 35.5 µM (inactive) | GI50 [20]: > 100 µM (inactive) | GI50 [22]: 50.2 µM (inactive) | GI50 [23]: 11.3 µM (inactive) | GI50 [24]: > 100 µM (inactive) | GI50 [62]: 39.4 µM (inactive) | GI50 [25]: 58.1 µM (inactive) | GI50 [26]: 14.7 µM (inactive) | GI50 [27]: 50.2 µM (inactive) | GI50 [28]: 32.2 µM (inactive) | GI50 [30]: 32.7 µM (inactive) | GI50 [31]: 96.2 µM (inactive) | GI50 [32]: 38.5 µM (inactive) | GI50 [33]: > 100 µM (inactive) | GI50 [34]: 20.6 µM | GI50 [35]: > 100 µM (inactive) | GI50 [36]: 54.8 µM (inactive) | GI50 [38]: 22.4 µM (inactive) | GI50 [39]: 38.4 µM (inactive) | GI50 [40]: 20.7 µM (inactive) | GI50 [42]: 30.3 µM (inactive) | GI50 [63]: 17.9 µM (inactive) | GI50 [44]: 76.7 µM (inactive) | GI50 [45]: 42 µM (inactive) | GI50 [46]: 37.1 µM (inactive) | GI50 [47]: 75.2 µM (inactive) | GI50 [49]: 25.2 µM (inactive) | GI50 [52]: 56.9 µM (inactive) | GI50 [64]: 48.5 µM (inactive) | GI50 [53]: > 100 µM (inactive) | GI50 [54]: 70.8 µM (inactive) | GI50 [55]: 39.3 µM (inactive) | GI50 [56]: 23.4 µM (inactive) | GI50 [58]: 39.6 µM (inactive) | GI50 [59]: 38.2 µM (inactive)

O=C(NCCc1ccccc1)[C@H]1CCCC[C@@H]1CCO
GI50 [1]: > 100 µM (inactive) | GI50 [2]: > 100 µM (inactive) | GI50 [3]: > 100 µM (inactive) | GI50 [4]: > 100 µM (inactive) | GI50 [5]: > 100 µM (inactive) | GI50 [6]: > 100 µM (inactive) | GI50 [7]: > 100 µM (inactive) | GI50 [8]: > 100 µM (inactive) | GI50 [9]: > 100 µM (inactive) | GI50 [10]: > 100 µM (inactive) | GI50 [11]: > 100 µM (inactive) | GI50 [12]: > 100 µM (inactive) | GI50 [13]: > 100 µM (inactive) | GI50 [14]: > 100 µM (inactive) | GI50 [15]: > 100 µM (inactive) | GI50 [16]: > 100 µM (inactive) | GI50 [17]: > 100 µM (inactive) | GI50 [18]: > 100 µM (inactive) | GI50 [19]: > 100 µM (inactive) | GI50 [20]: > 100 µM (inactive) | GI50 [21]: > 100 µM (inactive) | GI50 [24]: > 100 µM (inactive) | GI50 [25]: > 100 µM (inactive) | GI50 [26]: > 100 µM (inactive) | GI50 [27]: > 100 µM (inactive) | GI50 [28]: > 100 µM (inactive) | GI50 [29]: > 100 µM (inactive) | GI50 [30]: > 100 µM (inactive) | GI50 [31]: > 100 µM (inactive) | GI50 [32]: > 100 µM (inactive) | GI50 [33]: > 100 µM (inactive) | GI50 [34]: > 100 µM | GI50 [35]: > 100 µM (inactive) | GI50 [36]: > 100 µM (inactive) | GI50 [37]: > 100 µM (inactive) | GI50 [38]: > 100 µM (inactive) | GI50 [39]: > 100 µM (inactive) | GI50 [40]: > 100 µM (inactive) | GI50 [41]: > 100 µM (inactive) | GI50 [42]: > 100 µM (inactive) | GI50 [43]: > 100 µM (inactive) | GI50 [44]: > 100 µM (inactive) | GI50 [45]: > 100 µM (inactive) | GI50 [46]: > 100 µM (inactive) | GI50 [47]: > 100 µM (inactive) | GI50 [48]: > 100 µM (inactive) | GI50 [49]: > 100 µM (inactive) | GI50 [50]: > 100 µM (inactive) | GI50 [51]: > 100 µM (inactive) | GI50 [52]: > 100 µM (inactive) | GI50 [53]: > 100 µM (inactive) | GI50 [54]: > 100 µM (inactive) | GI50 [55]: > 100 µM (inactive) | GI50 [56]: > 100 µM (inactive) | GI50 [57]: > 100 µM (inactive) | GI50 [58]: > 100 µM (inactive) | GI50 [59]: > 100 µM (inactive)

Cc1nc(-c2nc(C)c(C(=O)/C=C/c3ccc([N+](=O)[O-])cc3)s2)sc1C(=O)/C=C/c1ccc([N+](=O)[O-])cc1
GI50 [1]: > 100 µM (inactive) | GI50 [2]: > 100 µM (inactive) | GI50 [4]: > 100 µM (inactive) | GI50 [5]: > 100 µM (inactive) | GI50 [6]: > 100 µM (inactive) | GI50 [7]: > 100 µM (inactive) | GI50 [8]: > 100 µM (inactive) | GI50 [60]: > 100 µM (inactive) | GI50 [11]: > 100 µM (inactive) | GI50 [13]: > 10 µM (inactive) | GI50 [61]: > 100 µM (inactive) | GI50 [14]: > 100 µM (inactive) | GI50 [15]: > 100 µM (inactive) | GI50 [17]: > 100 µM (inactive) | GI50 [18]: > 100 µM (inactive) | GI50 [65]: > 100 µM (inactive) | GI50 [20]: > 100 µM (inactive) | GI50 [21]: > 100 µM (inactive) | GI50 [22]: > 100 µM (inactive) | GI50 [23]: > 100 µM (inactive) | GI50 [24]: > 100 µM (inactive) | GI50 [25]: > 100 µM (inactive) | GI50 [26]: > 100 µM (inactive) | GI50 [27]: > 100 µM (inactive) | GI50 [28]: > 100 µM (inactive) | GI50 [29]: > 100 µM (inactive) | GI50 [30]: > 100 µM (inactive) | GI50 [31]: > 100 µM (inactive) | GI50 [32]: > 100 µM (inactive) | GI50 [33]: > 100 µM (inactive) | GI50 [34]: > 100 µM | GI50 [35]: > 100 µM (inactive) | GI50 [36]: > 100 µM (inactive) | GI50 [38]: > 100 µM (inactive) | GI50 [39]: > 100 µM (inactive) | GI50 [40]: > 100 µM (inactive) | GI50 [42]: > 100 µM (inactive) | GI50 [63]: > 100 µM (inactive) | GI50 [43]: > 100 µM (inactive) | GI50 [44]: > 100 µM (inactive) | GI50 [45]: > 100 µM (inactive) | GI50 [47]: > 100 µM (inactive) | GI50 [48]: > 100 µM (inactive) | GI50 [66]: > 100 µM (inactive) | GI50 [52]: > 100 µM (inactive) | GI50 [64]: > 100 µM (inactive) | GI50 [53]: > 100 µM (inactive) | GI50 [54]: > 100 µM (inactive) | GI50 [55]: > 100 µM (inactive) | GI50 [56]: > 100 µM (inactive) | GI50 [58]: > 100 µM (inactive) | GI50 [59]: > 100 µM (inactive)

Source: ChEMBL document CHEMBL1201862, “PubChem BioAssay data set” (2004)
